Assay results as given in PMC8597046, “Use of Mixture Dosing and Nonlinear Mixed Effect Modeling of Eight Environmental Contaminants in Rabbits to Improve Extrapolation Value of Toxicokinetic Data” (Environmental Health Perspectives, 2021).
Where two headings read alike, the source gives them in different places.

Tests used:
[1] = rodents; ref Staskal et al. 2005; cited from earlier work
[2] = Nonlinear mixed effect (NLME) compartmental modeling of merged IV and oral serum concentrations; conditions: for tvK12 (distribution rate constant) / tvK21 (distribution rate constant) / tvVc (volume of the central compartment) / tvKabs (rate constant of absorption): population primary parameter, typical value; for tvKabs (rate constant of absorption): MEHP after oral DEHP; for Volume(s) of the peripheral compartment: for PFOA first peripheral compartment
How it was run: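 Rabbit serum concentrations after IV and oral dosing fitted jointly by NLME compartmental modeling (−2LL minimization, Laplacian or QRPEM), exponential between-subject variability, combined additive/proportional error. CL, V2, Q, VZ, AUC (Dose/CL) and terminal half-life derived from population primary parameters.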

[3] = TK assay, oral mixture dosing: serum concentrations and noncompartmental analysis (sparse data); conditions: female, rabbit, in vivo, po; for concentration at 24 h / concentration at 23.98 h / concentration at 168 h / concentration at 0.57 h / concentration at 672.02 h / concentration at 0.55 h / concentration at 671.96 h / concentration at 72 h / concentration at 71.96 h / concentration at 168.02 h: Serum concentration
How it was run: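 Female New Zealand white rabbits (10-wk, 2.37±0.14kg) got the compound mixture IV via ear-vein catheter or orally into the mouth; serum sampled 15 min to 28 d, 3 (or 6 at 30 min) rabbits per time. Sparse-data noncompartmental analysis gave AUC (linear trapezoidal), CL or CL_F, half-life and F.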

[4] = rabbit, in vivo; cited from earlier work
[5] = female, New Zealand white (INRA 1777 line), rabbit, in vivo
[6] = female, New Zealand white, rabbit, in vivo
[7] = female, New Zealand white, rabbit, in vivo, iv
[8] = female, New Zealand white, rabbit, in vivo, po
[9] = population secondary parameter, mean
[10] = New Zealand white (INRA 1777 line)

## Brc1ccc(Oc2ccc(Br)cc2Br)c(Br)c1 [BDE-47, 2,2′,4,4′-tetrabromodiphenyl ether]
[1]
  Intestinal absorption: 82%
[2]; [5]
  Vd: 45 L/kg
  k el: 1.8e-05 s⁻¹
[2]; female, New Zealand white (INRA 1777 line), rabbit, in vivo, po, Oral bioavailability (F), NLME model
  bioavailability: > 85%
[2]; [6]
  MRT: 5.54 days
  half-life: 6.79 days
[2]; female, New Zealand white, rabbit, in vivo, Clearance, population secondary parameter, mean
  clearance: 5.67 mL/min/kg
[2]; [7]
  AUC: 29 µM·h
[2]; [8]
  AUC: 71 µM·h
[2]; female, New Zealand white, rabbit, in vivo, po, Bioavailability, population secondary parameter, mean, as fraction
  bioavailability: 96%
[2]; oral dosing
  AUCVO/dose: 2.97 μmol×h/L per μmol/kg BW
[2]; mean
  tvK12 (distribution rate constant): 0.0697 h⁻¹
  tvK21 (distribution rate constant): 0.009154 h⁻¹
  tvVc (volume of the central compartment): 5.188 L/kg
  tvKabs (rate constant of absorption): 0.02289 h⁻¹
[2]; [9]
  Volume(s) of the peripheral compartment: 39 L/kg
[3]; [10]
  AUC(0-inf): 79.5 µM·h
  CL/F: 5 mL/min/kg
  Cmax: 640 nM
  MRT: 10.8 days
  Tmax: 1 days
  Vd/F: 116 L/kg
  bioavailability: 78%
  half-life: 11.1 days
[3]; New Zealand white (INRA 1777 line), oral, rabbit 13, […], MEHP after oral DEHP
  concentration at 24 h: 770 nM
[3]; New Zealand white (INRA 1777 line), oral, rabbit 14, […], MEHP after oral DEHP
  concentration at 24 h: 510 nM
[3]; New Zealand white (INRA 1777 line), oral, rabbit 15, 23.98 h, MEHP after oral DEHP
  concentration at 23.98 h: 300 nM
[3]; New Zealand white (INRA 1777 line), rabbit 21, 168.00 h
  concentration at 168 h: 110 nM
[3]; New Zealand white (INRA 1777 line), rabbit 22, 0.57 h
  concentration at 0.57 h: 12 nM
[3]; New Zealand white (INRA 1777 line), rabbit 22, 672.02 h
  concentration at 672.02 h: 17 nM
[3]; New Zealand white (INRA 1777 line), rabbit 23, 0.55 h
  concentration at 0.55 h: 33 nM
[3]; New Zealand white (INRA 1777 line), rabbit 23, 671.96 h
  concentration at 671.96 h: 27 nM
[3]; New Zealand white (INRA 1777 line), rabbit 24, 0.55 h
  concentration at 0.55 h: 110 nM
[3]; New Zealand white (INRA 1777 line), rabbit 24, 672.02 h
  concentration at 672.02 h: 30 nM
[3]; New Zealand white, oral, rabbit 16, 72.00 h, MEHP after oral DEHP
  concentration at 72 h: 160 nM
[3]; New Zealand white, oral, rabbit 17, 72.00 h, MEHP after oral DEHP
  concentration at 72 h: 210 nM
[3]; New Zealand white, oral, rabbit 18, 71.96 h, MEHP after oral DEHP
  concentration at 71.96 h: 300 nM
[3]; New Zealand white, rabbit 19, 168.02 h
  concentration at 168.02 h: 92 nM
[3]; New Zealand white, rabbit 20, 168.00 h
  concentration at 168 h: 120 nM

## Clc1c(Cl)c(Cl)c(Cl)c(Cl)c1Cl [HCB, hexachlorobenzene]
[4]
  half-life: 32 days
[2]; [5]
  VSS: 33 to 45 L/kg
  Vd: 35 L/kg
  k el: 9.74e-07 s⁻¹
[2]; female, New Zealand white (INRA 1777 line), rabbit, in vivo, po
  tvf (ilogit of the oral bioavailability): 0.03625
[2]; female, New Zealand white (INRA 1777 line), rabbit, in vivo, po, Oral bioavailability (F)
  bioavailability: ~50%
[2]; [6]
  Clearance: 0.83 to 5.67 mL/min/kg
  Clearance(s) of distribution: 13 mL/min/kg
  clearance: 0.85 mL/min/kg
  half-life: 20 days
[2]; female, New Zealand white, rabbit, in vivo, MRT
  MRT: > 33.3 days
[2]; [7]
  AUC: 4.5 µM·h
[2]; [8]
  AUC: 271 µM·h
[2]; female, New Zealand white, rabbit, in vivo, po, Bioavailability
  bioavailability: 51%
[2]; mean
  tvK12 (distribution rate constant): 0.05299 h⁻¹
  tvK21 (distribution rate constant): 0.03851 h⁻¹
  tvVc (volume of the central compartment): 14.63 L/kg
  tvKabs (rate constant of absorption): 0.3488 h⁻¹
[2]; [9]
  Volume(s) of the peripheral compartment: 20 L/kg
[3]; [10]
  AUC(0-inf): 340 µM·h
  CL/F: 1.33 mL/min/kg
  Cmax: 505 nM
  MRT: 46.5 days
  Tmax: 1 days
  Vd/F: 95 L/kg
  bioavailability: 64%
  half-life: 34 days
  concentration at 0.57 h: 66 nM
  concentration at 23.98 h: 370 nM
  concentration at 24 h: 640 nM
  concentration at 168 h: 290 nM
  concentration at 671.96 h: 160 nM
[3]; New Zealand white (INRA 1777 line), 24 h
  Serum concentration: 370 nM
[3]; New Zealand white, 72 h
  Serum concentration: 400 nM
[3]; New Zealand white
  concentration at 71.96 h: 490 nM
  concentration at 72 h: 220 nM
  concentration at 168 h: 240 nM
  concentration at 168.02 h: 240 nM
